In ChEMBL document CHEMBL3885881, “DrugMatrix”:

Species: Rattus norvegicus
Test: DrugMatrix - Regimen: Daily Repeat
Assay type: toxicity, organism-based, Sprague-Dawley
Design: regimen Daily Repeat, gender Male, age 6-8 weeks
Conditions: in vivo, po, route oral GAVAGE, vehicle 100 % WATER; for ABSOLUTE BASOPHIL / ABSOLUTE EOSINOPHIL / ABSOLUTE LYMPHOCYTE / ABSOLUTE MONOCYTE / ABSOLUTE SEGMENTED NEUTROPHIL / BASOPHIL / EOSINOPHIL / ERYTHROCYTE COUNT / HEMATOCRIT / HEMOGLOBIN / LEUKOCYTE COUNT / LYMPHOCYTE / MEAN CORPUSCULAR HEMOGLOBIN / MEAN CORPUSCULAR HEMOGLOBIN CONCENTRATION / MEAN CORPUSCULAR VOLUME / MONOCYTE / NEUTROPHIL / NUCLEATED RED BLOOD CELLS / PLATELET COUNT: tissue Blood; for ALANINE AMINOTRANSFERASE / ALBUMIN / ALKALINE PHOSPHATASE / ASPARTATE AMINOTRANSFERASE / BLOOD UREA NITROGEN / CARBON DIOXIDE / CHLORIDE / CHOLESTEROL / CREATINE PHOSPHOKINASE / CREATININE / GLUCOSE / LACTATE DEHYDROGENASE / LIPASE / PHOSPHORUS / POTASSIUM / SODIUM / TOTAL BILIRUBIN / TOTAL PROTEIN / URIC ACID: tissue Plasma
[1] = 0 mg/kg, 72 h, dose level Control, time 3 day
[2] = 0 mg/kg, 120 h, dose level Control, time 5 day
[3] = 4.5 mg/kg, 72 h, dose level Low, time 3 day

## NN [HYDRAZINE]
[1]
  ABSOLUTE BASOPHIL: 0 CELLS/uL
  ABSOLUTE EOSINOPHIL: 20.17 CELLS/uL
  ABSOLUTE LYMPHOCYTE: 12371.67 CELLS/uL
  ABSOLUTE MONOCYTE: 166 CELLS/uL
  ABSOLUTE SEGMENTED NEUTROPHIL: 1292.17 CELLS/uL
  BASOPHIL: 0%
  EOSINOPHIL: 0.17%
  ERYTHROCYTE COUNT: 5.46 x10E6/uL
  HEMATOCRIT: 34.38%
  HEMOGLOBIN: 13.32 G/DL
  LEUKOCYTE COUNT: 13.85 x10E3/uL
  LYMPHOCYTE: 88.5%
  MEAN CORPUSCULAR HEMOGLOBIN: 24.42 pg
  MEAN CORPUSCULAR HEMOGLOBIN CONCENTRATION: 38.7 G/DL
  MEAN CORPUSCULAR VOLUME: 63.07 fL
  MONOCYTE: 1.17%
  NEUTROPHIL: 10.17%
  NUCLEATED RED BLOOD CELLS: 0.17 /100WBC
  PLATELET COUNT: 1193.5 x10E3/uL
  ALANINE AMINOTRANSFERASE: 54.5 u/L
  ALBUMIN: 4.02 G/DL
  ALKALINE PHOSPHATASE: 346.5 u/L
  ASPARTATE AMINOTRANSFERASE: 103.17 u/L
  BLOOD UREA NITROGEN: 16.5 mg/dL
  CARBON DIOXIDE: 29.83 mmol/L
  CHLORIDE: 99.5 MEQ/L
  CHOLESTEROL: 72.5 mg/dL
  CREATINE PHOSPHOKINASE: 532.5 u/L
  CREATININE: 0.18 mg/dL
  GLUCOSE: 168.5 mg/dL
  LACTATE DEHYDROGENASE: 536.5 u/L
  LIPASE: 11.17 u/L
  PHOSPHORUS: 11.48 mg/dL
  POTASSIUM: 5.95 MEQ/L
  SODIUM: 140.5 MEQ/L
  TOTAL BILIRUBIN: 0.18 mg/dL
  TOTAL PROTEIN: 5.77 G/DL
  URIC ACID: 1.42 mg/dL
[2]
  ABSOLUTE BASOPHIL: 0 CELLS/uL
  ABSOLUTE EOSINOPHIL: 22.83 CELLS/uL
  ABSOLUTE LYMPHOCYTE: 12202.83 CELLS/uL
  ABSOLUTE MONOCYTE: 158 CELLS/uL
  ABSOLUTE SEGMENTED NEUTROPHIL: 1283 CELLS/uL
  BASOPHIL: 0%
  EOSINOPHIL: 0.17%
  ERYTHROCYTE COUNT: 5.88 x10E6/uL
  HEMATOCRIT: 36.62%
  HEMOGLOBIN: 14.07 G/DL
  LEUKOCYTE COUNT: 13.67 x10E3/uL
  LYMPHOCYTE: 89.5%
  MEAN CORPUSCULAR HEMOGLOBIN: 23.95 pg
  MEAN CORPUSCULAR HEMOGLOBIN CONCENTRATION: 38.43 G/DL
  MEAN CORPUSCULAR VOLUME: 62.28 fL
  MONOCYTE: 1.17%
  NEUTROPHIL: 9.17%
  NUCLEATED RED BLOOD CELLS: 0.17 /100WBC
  PLATELET COUNT: 1198 x10E3/uL
  ALANINE AMINOTRANSFERASE: 51 u/L
  ALBUMIN: 4.3 G/DL
  ALKALINE PHOSPHATASE: 343 u/L
  ASPARTATE AMINOTRANSFERASE: 89.83 u/L
  BLOOD UREA NITROGEN: 17.67 mg/dL
  CARBON DIOXIDE: 27.17 mmol/L
  CHLORIDE: 98.33 MEQ/L
  CHOLESTEROL: 82.5 mg/dL
  CREATINE PHOSPHOKINASE: 533.33 u/L
  CREATININE: 0.18 mg/dL
  GLUCOSE: 152.67 mg/dL
  LACTATE DEHYDROGENASE: 220.33 u/L
  LIPASE: 11.5 u/L
  PHOSPHORUS: 11.25 mg/dL
  POTASSIUM: 6.29 MEQ/L
  SODIUM: 140.53 MEQ/L
  TOTAL BILIRUBIN: 0.22 mg/dL
  TOTAL PROTEIN: 6.12 G/DL
  URIC ACID: 1.42 mg/dL
[3]
  ABSOLUTE BASOPHIL: 0 CELLS/uL
  ABSOLUTE EOSINOPHIL: 52 CELLS/uL
  ABSOLUTE LYMPHOCYTE: 11298 CELLS/uL
  ABSOLUTE MONOCYTE: 113 CELLS/uL
  ABSOLUTE SEGMENTED NEUTROPHIL: 1470.33 CELLS/uL
  BASOPHIL: 0%
  EOSINOPHIL: 0.33%
  ERYTHROCYTE COUNT: 5.57 x10E6/uL
  HEMATOCRIT: 35.73%
  HEMOGLOBIN: 13.97 G/DL
  LEUKOCYTE COUNT: 12.93 x10E3/uL
  LYMPHOCYTE: 87.33%
  MEAN CORPUSCULAR HEMOGLOBIN: 25.1 pg
  MEAN CORPUSCULAR HEMOGLOBIN CONCENTRATION: 39.1 G/DL
  MEAN CORPUSCULAR VOLUME: 64.2 fL
  MONOCYTE: 1%
  NEUTROPHIL: 11.33%
  NUCLEATED RED BLOOD CELLS: 0.33 /100WBC
  PLATELET COUNT: 1229.67 x10E3/uL
  ALANINE AMINOTRANSFERASE: 44.67 u/L
  ALBUMIN: 4.07 G/DL
  ALKALINE PHOSPHATASE: 421.33 u/L
  ASPARTATE AMINOTRANSFERASE: 89.67 u/L
  BLOOD UREA NITROGEN: 13.33 mg/dL
  CARBON DIOXIDE: 30.67 mmol/L
  CHLORIDE: 99 MEQ/L
  CHOLESTEROL: 73.67 mg/dL
  CREATINE PHOSPHOKINASE: 298.33 u/L
  CREATININE: 0.17 mg/dL
  GLUCOSE: 155 mg/dL
  LACTATE DEHYDROGENASE: 178.33 u/L
  LIPASE: 10.67 u/L
  PHOSPHORUS: 11.43 mg/dL
  POTASSIUM: 6.44 MEQ/L
  SODIUM: 142.33 MEQ/L
  TOTAL BILIRUBIN: 0.2 mg/dL
  TOTAL PROTEIN: 6.07 G/DL
  URIC ACID: 1.73 mg/dL
